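Where inhibition never reached the appropriate level, the endpoint shown equals the highest concentration tested. Otherwise, values were interpolated linearly from a five-concentration, 48-hour dose response in 96-well plates. At the GI50, growth is halved. TGI: concentration producing complete growth inhibition.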
What was measured:
Test in all cases: inhibition of tumour cell growth, NCI panel, 48 h
HCT-15 colon = test system: HCT-15 colon
EKVX NSCLC = test system: EKVX NSCLC
SNB-19 CNS = test system: SNB-19 CNS
MALME-3M melanoma = test system: MALME-3M melanoma
RPMI-8226 leukemia = test system: RPMI-8226 leukemia
DU-145 prostate = test system: DU-145 prostate
NCI-H23 lung = test system: NCI-H23 lung
UO-31 renal = test system: UO-31 renal
SK-MEL-5 melanoma = test system: SK-MEL-5 melanoma
K-562 leukemia = test system: K-562 leukemia
SF-268 CNS = test system: SF-268 CNS
SK-OV-3 ovarian = test system: SK-OV-3 ovarian
UACC-62 melanoma = test system: UACC-62 melanoma
CCRF-CEM leukemia = test system: CCRF-CEM leukemia
LOX IMVI melanoma = test system: LOX IMVI melanoma
HOP-62 NSCLC = test system: HOP-62 NSCLC
M14 melanoma = test system: M14 melanoma
HL-60(TB) leukemia = test system: HL-60(TB) leukemia
A498 renal = test system: A498 renal
MDA-MB-231 breast = test system: MDA-MB-231 breast
SF-539 CNS = test system: SF-539 CNS
OVCAR-8 ovarian = test system: OVCAR-8 ovarian
A549 NSCLC = test system: A549 NSCLC
NCI-H226 lung = test system: NCI-H226 lung
MOLT-4 leukemia = test system: MOLT-4 leukemia
NCI-H522 lung = test system: NCI-H522 lung
HCC-2998 colon = test system: HCC-2998 colon
HCT-116 colon = test system: HCT-116 colon
IGROV1 ovarian = test system: IGROV1 ovarian
UACC-257 melanoma = test system: UACC-257 melanoma
RXF 393 renal = test system: RXF 393 renal
MDA-MB-435 = test system: MDA-MB-435
PC-3 prostate = test system: PC-3 prostate
COLO 205 colon = test system: COLO 205 colon
OVCAR-4 ovarian = test system: OVCAR-4 ovarian
SN12C renal = test system: SN12C renal
HOP-92 NSCLC = test system: HOP-92 NSCLC
HS 578T breast = test system: HS 578T breast
U251 CNS = test system: U251 CNS
SR leukemia = test system: SR leukemia
HT29 colon = test system: HT29 colon
TK-10 renal = test system: TK-10 renal
BT-549 breast = test system: BT-549 breast
SF-295 CNS = test system: SF-295 CNS
SK-MEL-2 melanoma = test system: SK-MEL-2 melanoma
NCI-H460 lung = test system: NCI-H460 lung
786-0 renal = test system: 786-0 renal
SW-620 colon = test system: SW-620 colon
SK-MEL-28 melanoma = test system: SK-MEL-28 melanoma
CAKI-1 renal = test system: CAKI-1 renal
MCF7 breast = test system: MCF7 breast
SNB-75 CNS = test system: SNB-75 CNS
OVCAR-5 ovarian = test system: OVCAR-5 ovarian
OVCAR-3 ovarian = test system: OVCAR-3 ovarian
NCI/ADR-RES ovarian = test system: NCI/ADR-RES ovarian
KM12 colon = test system: KM12 colon
T-47D breast = test system: T-47D breast
ACHN renal = test system: ACHN renal

CCC(=O)Nc1ccc(C)c(-c2ccc(C(=O)NCC3CC3)cc2)c1
GI50 (HCT-15 colon): > 25 µM
TGI (HCT-15 colon): > 25 µM
GI50 (EKVX NSCLC): > 25 µM
TGI (EKVX NSCLC): > 25 µM
GI50 (SNB-19 CNS): > 25 µM
TGI (SNB-19 CNS): > 25 µM
GI50 (MALME-3M melanoma): > 25 µM
TGI (MALME-3M melanoma): > 25 µM
GI50 (RPMI-8226 leukemia): > 25 µM
TGI (RPMI-8226 leukemia): > 25 µM
GI50 (DU-145 prostate): > 25 µM
TGI (DU-145 prostate): > 25 µM
GI50 (NCI-H23 lung): > 25 µM
TGI (NCI-H23 lung): > 25 µM
GI50 (UO-31 renal): > 25 µM
TGI (UO-31 renal): > 25 µM
GI50 (SK-MEL-5 melanoma): > 25 µM
TGI (SK-MEL-5 melanoma): > 25 µM
GI50 (K-562 leukemia): > 25 µM
TGI (K-562 leukemia): > 25 µM
GI50 (SF-268 CNS): > 25 µM
TGI (SF-268 CNS): > 25 µM
GI50 (SK-OV-3 ovarian): > 25 µM
TGI (SK-OV-3 ovarian): > 25 µM
GI50 (UACC-62 melanoma): > 25 µM
TGI (UACC-62 melanoma): > 25 µM
GI50 (CCRF-CEM leukemia): > 25 µM
TGI (CCRF-CEM leukemia): > 25 µM
GI50 (LOX IMVI melanoma): > 25 µM
TGI (LOX IMVI melanoma): > 25 µM
GI50 (HOP-62 NSCLC): > 25 µM
TGI (HOP-62 NSCLC): > 25 µM
GI50 (M14 melanoma): > 25 µM
TGI (M14 melanoma): > 25 µM
GI50 (HL-60(TB) leukemia): > 25 µM
TGI (HL-60(TB) leukemia): > 25 µM
GI50 (A498 renal): > 25 µM
TGI (A498 renal): > 25 µM
GI50 (MDA-MB-231 breast): > 25 µM
TGI (MDA-MB-231 breast): > 25 µM
GI50 (SF-539 CNS): > 25 µM
TGI (SF-539 CNS): > 25 µM
GI50 (OVCAR-8 ovarian): > 25 µM
TGI (OVCAR-8 ovarian): > 25 µM
GI50 (A549 NSCLC): > 25 µM
TGI (A549 NSCLC): > 25 µM
GI50 (NCI-H226 lung): > 25 µM
TGI (NCI-H226 lung): > 25 µM
GI50 (MOLT-4 leukemia): > 25 µM
TGI (MOLT-4 leukemia): > 25 µM
GI50 (NCI-H522 lung): > 25 µM
TGI (NCI-H522 lung): > 25 µM
GI50 (HCC-2998 colon): > 25 µM
TGI (HCC-2998 colon): > 25 µM
GI50 (HCT-116 colon): > 25 µM
TGI (HCT-116 colon): > 25 µM
GI50 (IGROV1 ovarian): > 25 µM
TGI (IGROV1 ovarian): > 25 µM
GI50 (UACC-257 melanoma): > 25 µM
TGI (UACC-257 melanoma): > 25 µM
GI50 (RXF 393 renal): > 25 µM
TGI (RXF 393 renal): > 25 µM
GI50 (MDA-MB-435): > 25 µM
TGI (MDA-MB-435): > 25 µM
GI50 (PC-3 prostate): > 25 µM
TGI (PC-3 prostate): > 25 µM
GI50 (COLO 205 colon): > 25 µM
TGI (COLO 205 colon): > 25 µM
GI50 (OVCAR-4 ovarian): > 24.1 µM
TGI (OVCAR-4 ovarian): > 25 µM
GI50 (SN12C renal): > 25 µM
TGI (SN12C renal): > 25 µM
GI50 (HOP-92 NSCLC): > 25 µM
TGI (HOP-92 NSCLC): > 25 µM
GI50 (HS 578T breast): > 25 µM
TGI (HS 578T breast): > 25 µM
GI50 (U251 CNS): > 25 µM
TGI (U251 CNS): > 25 µM
GI50 (SR leukemia): > 25 µM
TGI (SR leukemia): > 25 µM
GI50 (HT29 colon): > 25 µM
TGI (HT29 colon): > 25 µM
GI50 (TK-10 renal): > 25 µM
TGI (TK-10 renal): > 25 µM
GI50 (BT-549 breast): > 25 µM
TGI (BT-549 breast): > 25 µM
GI50 (SF-295 CNS): > 25 µM
TGI (SF-295 CNS): > 25 µM
GI50 (SK-MEL-2 melanoma): > 25 µM
TGI (SK-MEL-2 melanoma): > 25 µM
GI50 (NCI-H460 lung): > 25 µM
TGI (NCI-H460 lung): > 25 µM
GI50 (786-0 renal): > 25 µM
TGI (786-0 renal): > 25 µM
GI50 (SW-620 colon): > 25 µM
TGI (SW-620 colon): > 25 µM
GI50 (SK-MEL-28 melanoma): > 25 µM
TGI (SK-MEL-28 melanoma): > 25 µM
GI50 (CAKI-1 renal): > 25 µM
TGI (CAKI-1 renal): > 25 µM
GI50 (MCF7 breast): > 25 µM
TGI (MCF7 breast): > 25 µM
GI50 (SNB-75 CNS): > 25 µM
TGI (SNB-75 CNS): > 25 µM
GI50 (OVCAR-5 ovarian): > 25 µM
TGI (OVCAR-5 ovarian): > 25 µM
GI50 (OVCAR-3 ovarian): > 25 µM
TGI (OVCAR-3 ovarian): > 25 µM
GI50 (NCI/ADR-RES ovarian): > 25 µM
TGI (NCI/ADR-RES ovarian): > 25 µM
GI50 (KM12 colon): > 25 µM
TGI (KM12 colon): > 25 µM
GI50 (T-47D breast): 14.6 µM
TGI (T-47D breast): > 25 µM
GI50 (ACHN renal): > 25 µM
TGI (ACHN renal): > 25 µM

— PubChem BioAssay (NCI)
